Measurements taken from patent publication US11491165B2 (Kinoxis Therapeutics Pty Ltd, priority 2016, dated 2022).

Legend:
[1] = biological target: T1, oxytocin receptor (OXTR), hOTR (Homo sapiens, UniProt P30559); experiment: Competition radioligand binding, [3H]-oxytocin, OTR-expressing HEK293 membranes; details: [3H]-oxytocin 10 nM, 90 min 4 °C
T1 construct: expressed in transfected cells
T1 sequence (P30559 1-389): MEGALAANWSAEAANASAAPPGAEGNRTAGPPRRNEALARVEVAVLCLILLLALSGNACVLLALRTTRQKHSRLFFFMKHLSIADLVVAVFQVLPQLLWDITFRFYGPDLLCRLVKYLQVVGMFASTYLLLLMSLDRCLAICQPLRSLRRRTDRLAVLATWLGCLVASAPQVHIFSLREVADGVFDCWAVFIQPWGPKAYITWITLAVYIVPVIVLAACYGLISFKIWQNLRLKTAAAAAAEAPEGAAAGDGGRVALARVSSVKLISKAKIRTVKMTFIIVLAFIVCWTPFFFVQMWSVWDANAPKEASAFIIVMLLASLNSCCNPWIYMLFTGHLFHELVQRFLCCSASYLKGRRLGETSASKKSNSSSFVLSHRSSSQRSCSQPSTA
Description: (§1) Human embryonic kidney cells (HEK-293) transfected to stably express untagged hOTR and V1aR using the Flp-In™ T-REx™ system (Life Technologies, Carlsbad, Calif. USA) were established as reported in Jorgensen et al., 2016 (the entire disclosure of which is hereby incorporated by reference). Cells were subsequently maintained in 10% DMEM containing hygromycin (80 μg/ml), penicillin (100 U/ml), streptomycin (0.1 mg/ml) and blasticidine S hydrochloride (15 μg/ml).
(§2) To induce receptor expression, cells were incubated with tetracycline (2 μg/mL) for 48 h. PBS with 5 mM EDTA (pH 7.4) was used to detach OTR and V1aR-expressing HEK293 cells from culture flasks. Harvested cells were centrifuged at 1200 g for 5 min and were resuspended in homogenization buffer (50 mM HEPES, 5 mM EDTA, 5 mM MgCl2; pH 7.4) prior to homogenization using an Ultra-Turrax homogeniser (IKA, Wilmington, N.C., USA). Homogenates were centrifuged three times for 30 min at 48.000 g, 4° C. for 30 min and membrane pellets resuspended in 50 mM Tris HCl, 5 mM MgCl2 (pH 7.4). A bicinchoninic acid assay was used according to the manufacturer's protocol (Bio-Rad, Hercules. Calif., USA) to measure final protein concentration. Membranes were stored at −80° C. until use in competition radioligand binding studies.
(§3) Reactions were incubated for 90 min at 4° C. to reach equilibrium, and terminated by rapid filtration over glass fibre filters (Whatman GF/A […]; Millipore, Darmstadt, Germany), and washing with ice-cold reaction buffer. Filters were dried, then incubated with Microscint 0 (Perkin Elmer) for 30 min before radioactivity was detected with a Microbeta2 2450 microplate-reader (Perkin Elmer). […] Specific binding in the presence of compounds was expressed as a percentage of specific binding in the presence of vehicle control. A sum-of-squares F-test was used to compare the goodness of fit of one-site, two-site and sigmoidal with variable hill slope binding models, and to calculate Ki's using Graphpad Prism (Graphpad Software, La Jolla, Calif., USA).

[2] = biological target: T1, oxytocin receptor (OXTR), hOTR; experiment: IP1 accumulation assay, OTR-expressing HEK-293 cells (agonist and antagonist assessment); format: cell-based; details: for EC50 / EC50 (OXTR agonist potency, mean ± s.d.): agonist assessment; for EC50: IP1, 1 h; for IC50: antagonist assessment vs OT 30 nM (~EC70); for IC50 / EC50 (OXTR agonist potency, mean ± s.d.): IP1; for OV function: ratio of OXTR functional potency to V1aR functional potency, 'OT only' = function at OXTR only; for Emax: HEK293, read-out: OXTR Emax (% OXT)
Description: as §1
(§4) OTR or V1aR-expressing HEK-293 cells were seeded onto poly-L-lysine (100 μg/ml)-coated 384-well plates at a density of 8.75×10^3 cells per well. Cells were incubated in tetracycline (2 μg/mL) for 48 h to induce receptor expression. Intracellular IP1 levels induced by activation of the Gq protein coupled to the OTR and V1aR was indexed using the HTRF IP-One kit (CisBio International, Bedford, Mass., USA), according to manufacturer's protocol. For agonist assessment, cells were incubated with logarithmically-spaced concentrations of compounds (1 nM-100 μM) for 1 h prior to the addition of Ab-Cryptate and IP1-d2 for 1 h. The contents of each well were transferred to a white-walled proxy plate (Perkin Elmer) and fluorescence read using a Pherastar Microplate reader (BMG Labtech, Cary, N.C., USA). For antagonist assessment, cells were incubated an ˜EC70 concentration of OT (30 nM) or AVP (25 nM) mixed with compounds (1 nM-100 μM) or vehicle control for 1 h. IP1 levels in the presence of compounds and OT or AVP were expressed as a percentage of levels seen with OT or AVP in the presence of vehicle control. Concentration response curves for OT and AVP were determined after 5 min incubation in drug or vehicle, and the data fitted using GraphPad PRISM to a 4-parameter logistic equation of the form y=Min+(Max−Min)/(1+10^((logEC50−X)*n)) where X is drug concentration and n is the H-ill slope. Data represent the mean±s.d. of at least 3 independent experiments, each in duplicate.

[3] = biological target: T2, vasopressin 1a receptor (V1aR) (Homo sapiens, UniProt P37288); experiment: IP1 accumulation assay, V1aR-expressing HEK-293 cells (agonist and antagonist assessment); format: cell-based; details: for EC50: agonist assessment, IP1, 1 h; for IC50: antagonist assessment vs AVP 25 nM (~EC70), IP1
T2 construct: expressed in transfected cells
T2 sequence (P37288 whole entry): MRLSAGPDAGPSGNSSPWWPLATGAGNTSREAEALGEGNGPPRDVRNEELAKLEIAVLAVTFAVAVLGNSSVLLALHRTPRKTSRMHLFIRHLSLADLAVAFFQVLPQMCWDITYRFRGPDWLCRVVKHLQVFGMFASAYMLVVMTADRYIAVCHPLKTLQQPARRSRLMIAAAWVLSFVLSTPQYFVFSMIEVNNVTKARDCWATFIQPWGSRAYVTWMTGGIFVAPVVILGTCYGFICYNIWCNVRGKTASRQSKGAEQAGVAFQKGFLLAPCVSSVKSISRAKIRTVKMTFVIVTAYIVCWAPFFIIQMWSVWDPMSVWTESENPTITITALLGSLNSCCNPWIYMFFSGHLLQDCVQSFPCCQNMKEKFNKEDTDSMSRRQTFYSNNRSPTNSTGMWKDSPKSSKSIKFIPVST
Description: Cells were subsequently maintained in 10% DMEM containing hygromycin (80 μg/ml), penicillin (100 U/ml), streptomycin (0.1 mg/ml) and blasticidine S hydrochloride (15 μg/ml).
as §4, with “Cells” for “OTR or V1aR-expressing HEK-293 cells were seeded onto poly-L-lysine (100 μg/ml)-coated 384-well plates at a density of 8.75×10^3 cells per well. Cells”, “For antagonist assessment, cells were incubated an ˜EC70 concentration of OT (30 nM) or AVP (25 nM) mixed with compounds (1 nM-100 μM) or vehicle control for 1 h.” left out

[4] = biological target: T2, vasopressin 1a receptor (V1aR); experiment: Competition radioligand binding, [3H]-vasopressin, V1aR-expressing HEK293 membranes; details: [3H]-vasopressin 2 nM, 90 min 4 °C
Description: as §1, §2, §3

Row | SMILES | Ki [1] [nM] | EC50 [2] [nM] | IC50 [2] [nM] | OV function [2] | EC50 [3] [nM] | IC50 [3] [nM] | melting point | Ki [4] [nM] | Emax [2] [%] | EC50 (OXTR agonist potency, mean ± s.d.) [2] [nM]
1 | Cn1ncc2c1Nc1ccccc1N(S(=O)(=O)c1ccc(Cl)cc1)C2 [WJ0633, 5-((4-Chlorophenyl)sulfonyl)-1-methyl-1,4,5,10-tetrahydrobenzo[b]pyrazolo[3,4-e][1,4]diazepine] | > 10000 | > 10000 | > 10000 |  | > 10000 | > 10000 | 206 to 208 °C | > 10000 |  | 
2 | Cn1ncc2c1Nc1ccccc1N(S(=O)(=O)c1ccc(C(F)(F)F)cc1)C2 [WJ0639, 1-Methyl-5-((4-(trifluoromethyl)phenyl)sulfonyl)-1,4,5,10-tetrahydrobenzo[b]pyrazolo[3,4-e][1,4]diazepine] | > 10000 | > 10000 | > 10000 |  | > 10000 | > 10000 | 203 to 205 °C | > 10000 |  | 
3 | Cc1ccc(S(=O)(=O)N2Cc3cnn(C)c3Nc3ccccc32)cc1 [WJ0641, 1-Methyl-5-tosyl-1,4,5,10-tetrahydrobenzo[b]pyrazolo[3,4-e][1,4]diazepine] | > 10000 | > 10000 | > 10000 |  | > 10000 | > 10000 | 184 to 186 °C | > 10000 |  | 
4 | Cn1ncc2c1Nc1ccccc1N(C(=O)c1ccc(C(F)(F)F)cc1)C2 [WJ0677, (1-Methyl-4,10-dihydrobenzo[b]pyrazolo[3,4-e][1,4]diazepin-5 (1H)-yl)(4-(trifluoromethyl)phenyl)methanone] | 560 ± 111 | 179 ± 37.8 |  |  | > 10000 | > 10000 | 204 to 206 °C | 96.9 ± 33.5 | 7.72 | 193.3 ± 11.3
5 | Cn1ncc2c1Nc1ccccc1N(C(=O)C13CC4CC(CC(C4)C1)C3)C2 [WJ0687, ((3r,5r,7r)-Adamantan-1-yl)(1-methyl-4,10-dihydrobenzo[b]pyrazolo[3,4-e][1,4]diazepin-5 (1H)-yl)methanone] | > 10000 | 4880 ± 141 |  |  | > 10000 | > 10000 | 283 to 285 °C | 377 ± 106 | 33.3 | 834 ± 61.1

The next lines start with the values.

Row | Ki [1] [nM] | EC50 [2] [nM] | IC50 [2] [nM] | OV function [2] | EC50 [3] [nM] | IC50 [3] [nM] | melting point | Ki [4] [nM] | Emax [2] [%] | EC50 (OXTR agonist potency, mean ± s.d.) [2] [nM] | SMILES
6 | 316 ± 79.2 | > 10000 | 1770 | 18.63 | > 10000 | 94.8 ± 7.7 | 279 to 281 °C (dec.) | 12.9 ± 1.5 |  |  | COc1cc(OC)cc(C(=O)N2Cc3cnn(C)c3Nc3ccccc32)c1 [WJ0629, (3,5-Dimethoxyphenyl)(1-methyl-4,10-dihydrobenzo[b]pyrazolo[3,4-e][1,4]diazepin-5 (1H)-yl)methanone]
7 | 149 ± 43.4 | 85.3 ± 26.5 |  | 0.12 | > 10000 | 710 ± 267 | 265 °C (dec.) | 12.4 ± 2.4 | 9.54 | 238.8 ± 38.7 | Cc1ccc(C(=O)N2Cc3cnn(C)c3Nc3ccccc32)cc1 [WJ0653, (1-Methyl-4,10-dihydrobenzo[b]pyrazolo[3,4-e][1,4]diazepin-5 (1H)-yl)(p-tolyl)methanone]
8 | 842 ± 288 | 338 ± 76.5 |  | 0.45 | > 10000 | 746 ± 158 | 267 to 269 °C (dec.) | 108 ± 23.5 | 4.99 | 124.9 ± 16.8 | COc1cccc(C(=O)N2Cc3cnn(C)c3Nc3ccccc32)c1 [WJ0657, (3-Methoxyphenyl)(1-methyl-4,10-dihydrobenzo[b]pyrazolo[3,4-e][1,4]diazepin-5 (1H)-yl)methanone]
9 | 272 ± 87.6 | 197 ± 60.3 |  | 0.43 | > 10000 | 462 ± 136 | 296 to 298 °C (dec.) | 24 ± 3.4 | 8.14 | 203.8 ± 54.8 | COc1ccc(C(=O)N2Cc3cnn(C)c3Nc3ccccc32)cc1 [WJ0661, (4-Methoxyphenyl)(1-methyl-4,10-dihydrobenzo[b]pyrazolo[3,4-e][1,4]diazepin-5 (1H)-yl)methanone]
10 | 755 ± 164 | 521 ± 35.2 |  | 0.24 | > 10000 | 2210 ± 406 | 290 to 292 °C (dec.) | 47.8 ± 9.4 | 10.9 | 272.7 ± 69.4 | Cn1ncc2c1Nc1ccccc1N(C(=O)c1cc(F)cc(F)c1)C2 [WJ0681, (3,5-Difluorophenyl)(1-methyl-4,10-dihydrobenzo[b]pyrazolo[3,4-e][1,4]diazepin-5 (1H)-yl)methanone]
11 | 103 ± 31 | 96.2 ± 22.9 |  | 0.085 | > 10000 | 1140 ± 165 | 235 to 237 °C | 7.8 ± 0.9 | 11.3 | 283.7 ± 22.4 | Cc1ccc(C(=O)N2Cc3cnn(C)c3Nc3ccccc32)cc1F [WJ0683, (3-Fluoro-4-methylphenyl)(1-methyl-4,10-dihydrobenzo[b]pyrazolo[3,4-e][1,4]diazepin-5 (1H)-yl)methanone]
12 | > 10000 | 847 ± 244 |  |  | > 10000 | > 10000 | > 300 °C | 81.6 ± 12.6 | 11.9 | 297.7 ± 71.3 | Cn1ncc2c1Nc1ccccc1N(C(=O)c1ccccc1)C2 [WJ0685, (1-Methyl-4,10-dihydrobenzo[b]pyrazolo[3,4-e][1,4]diazepin-5 (1H)-yl)(phenyl)methanone]
